# Patent US8969573B2, “Compounds for the inhibition of cellular proliferation” (President and Fellows of Harvard College, priority 2010, dated 2015)
# Like-named read-outs stand apart in the source and are kept apart here.
# Experiments:
# [1] = target: eIF4E/eIF4G interaction (Homo sapiens, UniProt P06730); test: Fluorescent polarization assay; format: binding; conditions: FITC eIF4G peptide and recombinant eIF4E, ratio to Z (4EGI-1 = 1)
# Procedure: The difference between the two measurement yields net polarization which is considered full signal of the assay (100% control). […] The activity of compound at each concentration is determined by comparing the fluorescent polarization (FP) signal in the presence of compound to the control (no compound) value. The percent inhibition is =100-((FP compound/FP control)*100).
# [2] = test system: CRL2351 human breast cancer; test: SRB assay (inhibition of cell proliferation); format: cell-based; conditions: CRL2351 human breast cancer cells
# Excerpt: (§1) A sulfur rhodamine B (SRB) assay was used to determine the extent of inhibition of cell proliferation as a measure of the anti-cancer activity of compounds of the present disclosure. The reagent SRB binds to cellular proteins and absorbs light proportionally to the cellular protein content, which is a surrogate marker for the number of cells. According to aspects of the present disclosure, the assay can be used to with any cancer cell line including breast cancer cell lines, prostate cancer cell lines, melanoma cell lines, lung cancer cell lines or any other cell lines of the cancers described herein.
# (§2) The following protocol was used to determine the growth characteristics of certain cell lines CRL2351 human breast cancer and CRL2813 human melanoma from which cell lines having doubling times less than 48 hours were selected for growth inhibition experiments. […] The following materials were used in addition to the cancel cell lines: complete (5% fetal calf serum added) tissue culture media, 96-well tissue culture plates, Sulforhodamine B dye (SRB, 0.57% w/w), […] (TCA, 10%), acetic acid glacial (1%) and 10 mM Tris base. The cells were prepared and plated. Cancer cells were grown to 80% confluency in an incubator. The cells were trypsinized per standard protocol or as needed for each cell line. The trypsin was neutralized, cells dissociated and counted. Each cell line was plated at a density of 500, 1000 and 3000 cells per well (six wells each) in five separate plates. The cells were then returned to the incubator. One plate was then removed each day starting day one after plating. 100 μl of 10% TCA was then added and the cells were fixed at 4° C. until all the cells were fixed. […] The cell growth for vehicle treatment is considered to be 100%. The optical density was then measured and plotted for each starting cell number and cell line against time. The percent cell growth inhibition was calculated as 100 minus the % of control cell growth. The % of control cell growth=((mean OD sample−Mean OD day 0)/(mean OD vehicle−Mean OD day 0))*100.
# [3] = test system: CRL2813 human melanoma; test: SRB assay (inhibition of cell proliferation); format: cell-based
# Excerpt: as §1, §2
# [4] = Homo sapiens, summary table, read-out: IC50 [μM} CRL2351
# [5] = CRL2813 human melanoma cells, summary table, read-out: IC50 [μM} CRL2813
# [6] = Homo sapiens, CRL2813, CRL2813 human melanoma cells, summary table, read-out: IC50 [μM} CRL2813
# [7] = summary table, read-out: IC50 [μM} CRL2351
# [8] = Homo sapiens, Tables 1, 4, 5, read-out: SRB-IC50 (μM) 2351
# [9] = Homo sapiens, CRL2813, CRL2813 human melanoma cells, Tables 1, 4, 5, read-out: SRB-IC50 (μM) 2813
# Chain of eIF4E/eIF4G interaction (P06730 whole entry): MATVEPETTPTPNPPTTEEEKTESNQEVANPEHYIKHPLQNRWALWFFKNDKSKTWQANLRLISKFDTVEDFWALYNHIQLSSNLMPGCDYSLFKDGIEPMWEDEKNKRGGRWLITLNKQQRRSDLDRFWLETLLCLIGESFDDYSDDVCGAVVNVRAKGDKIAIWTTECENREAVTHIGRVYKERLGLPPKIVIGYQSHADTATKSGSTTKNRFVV
SMILES,Fp (ratio to Z) [1],"IC50 [2, 4] [µM]","IC50 [3, 5] [µM]","IC50 [3, 6] [µM]","IC50 [2, 7] [µM]","IC50 [2, 8] [µM]","IC50 [3, 9] [µM]"
O=C(O)c1nn(-c2nc(-c3ccccc3)cs2)c2ccc([N+](=O)[O-])cc12 [RYF-292],0.6,9,,2.5,,,
COc1ccc(-c2nc(NN=C(Cc3ccccc3[N+](=O)[O-])C(=O)O)sc2-c2ccc(OC)cc2)cc1 [KY-323A],0.67,,1,,0.6,,
COc1ccc(-c2nc(N/N=C(\Cc3ccccc3[N+](=O)[O-])C(=O)O)sc2-c2cccc(-n3cc(CO)nn3)c2)cc1 [KY-467F],0.7,> 20,,> 20,,,
COc1ccc(-c2sc(N/N=C(/Cc3ccccc3[N+](=O)[O-])C(=O)O)nc2-c2ccc(OC(C)C)cc2)cc1 [KY-599S],1.3,8.7,,3,,,
COc1ccc(-c2nc(NN=C(Cc3ccccc3[N+](=O)[O-])C(=O)O)sc2-c2ccc(-n3cc(-c4ccc(N)cc4)nn3)cc2)cc1 [KY-449],2.5,17,,16 ± 1.8,,,
[N-]=[N+]=NCCCCCOc1ccc(-c2csc(N/N=C(/Cc3ccccc3[N+](=O)[O-])C(=O)O)n2)cc1 [KH-168S],1.29,> 20,,16,,,16
O=C(O)C(Cc1ccccc1[N+](=O)[O-])=NNc1nc(-c2ccccc2)c(-c2ccc(Cl)cc2)s1 [KY-349PR],1,> 20,,> 20,,,
COc1ccc(-c2nc(NN=C(Cc3ccccc3[N+](=O)[O-])C(=O)O)sc2-c2ccc(Cl)cc2)cc1 [KY-355PR],1.1,> 20,,3 ± 0.18,,,
[N-]=[N+]=NCCCOc1ccccc1-c1csc(N/N=C(/Cc2ccccc2[N+](=O)[O-])C(=O)O)n1 [KH-170],0.92,0.8,,14.5,,0.8,16.5
CCOc1ccc(-c2nc(N/N=C(/Cc3ccccc3[N+](=O)[O-])C(=O)O)sc2-c2ccc(OC)cc2)cc1 [KY-576F],1,,2,,2,,
COc1cc(-c2nc(NN=C(Cc3ccccc3[N+](=O)[O-])C(=O)O)sc2-c2ccc(Cl)c(Cl)c2)cc(OC)c1OC [KY-369S],0.75,0.6 ± 0.02,,2 ± 0.19,,,
Cc1ccc(-c2nc(NN=C(Cc3ccccc3[N+](=O)[O-])C(=O)O)sc2-c2ccc(Cl)cc2)cc1 [KY-351PR],1.1,2.5,,3,,,
CCCc1sc(N/N=C(/Cc2ccccc2[N+](=O)[O-])C(=O)O)nc1-c1ccc(OC)cc1 [KY-582S],0.9,13.2,,11.6,,,
COc1ccc(-c2nc(N/N=C(\Cc3ccccc3[N+](=O)[O-])C(=O)O)sc2-c2ccc(I)cc2)cc1 [KY-613S],1.1,9.5,,2.7,,,
O=C(O)C(Cc1ccccc1[N+](=O)[O-])=NNc1nc(-c2cc(Br)cc(Br)c2O)cs1 [KH-102BIIs],0.69,,20.5,,18,,
COc1ccc(-c2nc(NN=C(Cc3ccccc3[N+](=O)[O-])C(=O)O)sc2-c2ccc(Cl)cc2)cc1OC [KY-353PR],0.7,> 20,,> 20,,,
[N-]=[N+]=NCCCCOc1ccc(-c2csc(NN=C(Cc3ccccc3[N+](=O)[O-])C(=O)O)n2)cc1 [KH-113s],1.05,12,,12.6,,11,12.5
COc1ccc(-c2nc(N/N=C(\Cc3ccccc3[N+](=O)[O-])C(=O)O)sc2-c2ccc(-c3ccccc3)cc2)cc1 [KY-435-F],0.5,,3 ± 0.56,,2.8 ± 0.73,,
COc1ccc(-c2sc(NN=C(Cc3ccccc3[N+](=O)[O-])C(=O)O)nc2-c2ccc(OC)c(OC)c2)cc1 [KY-343PR],1,> 20,,> 20,,,
COc1ccc(-c2nc(NN=C(Cc3ccccc3[N+](=O)[O-])C(=O)O)sc2-c2ccc(OC)c(OC)c2)cc1 [KY-341PRI],1.2,4 ± 0.51,,5 ± 1.74,,,
"COc1ccc(-c2sc(N/N=C(/Cc3ccccc3[N+](=O)[O-])C(=O)O)nc2-c2ccc(-c3ccccc3)cc2)cc1 [KY-577S, 2-{[4-Biphenyl-4-yl-5-(4-methoxy-phenyl)-thiazol-2-yl]-hydrazono}-3-(2-nitro-phenyl)-propionic acid]",1,,3.5,,11.7,,
[N-]=[N+]=NCCCOc1ccc(-c2csc(N/N=C(/Cc3ccccc3[N+](=O)[O-])C(=O)O)n2)cc1 [KH-167f],1.04,,,18.6,> 20,,18.6
COc1ccc(-c2sc(N/N=C(/Cc3ccccc3[N+](=O)[O-])C(=O)O)nc2-c2ccc(C3CCCCC3)cc2)cc1 [KY-612S],1.8,11,0.3,,,,

# Now from value to compound:
Fp (ratio to Z) [1],"IC50 [2, 4] [µM]","IC50 [3, 5] [µM]","IC50 [3, 6] [µM]","IC50 [2, 7] [µM]","IC50 [2, 8] [µM]","IC50 [3, 9] [µM]",SMILES
0.83,13,10,,,,,"O=C(O)/C(=N\Nc1nc(-c2ccc(Cl)c(Cl)c2)cs1)c1ccccc1[N+](=O)[O-] [KY-782-Z, (Z)-2-(2-(4-(3,4-dichlorophenyl)thiazol-2-yl)hydrazono)-2-(2-nitrophenyl)acetic acid]"
0.55,0.54,,3.5,,,,COC(=O)C1CN(c2nc(-c3ccc(Cl)c(Cl)c3)cs2)CCN1c1ccccc1[N+](=O)[O-] (centres unmarked) [RYF-273]
1.4,,,7,18,,,"O=C(O)/C(=N/Nc1nc(-c2ccc(Cl)c(Cl)c2)cs1)c1cccc([N+](=O)[O-])c1 [KY-788-E, (E)-2-(2-(4-(3,4-dichlorophenyl)thiazol-2-yl)hydrazono)-2-(3-nitrophenyl)acetic acid]"
0.94,,2.2,,10,,,"O=C(O)C(=NNc1nc(-c2ccc(Cl)c(Cl)c2)cs1)c1ccccc1[N+](=O)[O-] (stereo in doubt) [KY-782-E, (E)-2-(2-(4-(3,4-dichlorophenyl)thiazol-2-yl)hydrazono)-2-(2-nitrophenyl)acetic acid]"
0.80,5,,9,,5,9,[N-]=[N+]=NCCOc1ccc(-c2csc(N/N=C(/Cc3ccccc3[N+](=O)[O-])C(=O)O)n2)cc1 [KH-166]
2.4,16 ± 4.9,,3 ± 0.5,,,,COc1ccc(-c2nc(NN=C(Cc3ccccc3[N+](=O)[O-])C(=O)O)sc2-c2ccc(Cl)c(Cl)c2)cc1 [KY-371A11-B1]
4,,,12.5,> 20,,,Br.CCN(CC)c1ccc(-c2csc(N/N=C(\Cc3ccccc3[N+](=O)[O-])C(=O)O)n2)cc1 [KY-615S]
1,15,,5,,,,O=C(O)/C(Cc1ccc([N+](=O)[O-])cc1)=N\Nc1nc(-c2ccc(Cl)c(Cl)c2)cs1 [KY-755-p]
1.1,3,,1,,,,O=C(O)/C(Cc1ccc(C(F)(F)F)cc1)=N/Nc1nc(-c2ccc(Cl)c(Cl)c2)cs1 [KY-680]
1,> 20,,> 20,,,,"[N-]=[N+]=NC/C(=N\Nc1nc(-c2ccc(Cl)c(Cl)c2)cs1)C(=O)O [KY-757-p, (E)-3-azido-2-(2-(4-(3,4-dichlorophenyl)thiazol-2-yl)hydrazono) propanoic acid]"
0.65,3.5,,3,,,,O=C(O)/C(Cc1ccccc1)=N/Nc1nc(-c2ccc(Cl)c(Cl)c2)cs1 [KY-706bc]
0.75,9,,3.5,,,,"N.O=C(O)/C(Cn1cc(-c2ccccn2)nn1)=N/Nc1nc(-c2ccc(Cl)c(Cl)c2)cs1 [KY-767, ammonium (E)-2-(2-(4-(3,4-dichlorophenyl)thiazol-2-yl)hydrazono)-3-(4-(pyridin-2-yl)-1H-1,2,3-triazol-1-yl)propanoate]"
0.69,9,,> 20,,,,O=C(O)C(Cc1ccccc1[N+](=O)[O-])=NNc1nc(-c2cc(Br)cc(Br)c2O)cs1 [KH-102BII]
